Reference: US9006243B2, “HIV inhibiting 6-substituted pyrimidines” (Janssen R&D Ireland, priority 2006, dated 2015)

Columns and labels:
HIV strain Y181C = experiment: microbe, parasite or virus in culture; format: cell-based, HIV-1; conditions: for Y181C pEC50 (−log EC50): HIV strain Y181C, MT4 LTR-EGFP cells, three days after infection; for EC50: Human immunodeficiency virus 1, 72 h, read-out: Y181C pEC50 (−log EC50) (converted)
Excerpt: (§1) Image analysis allows very sensitive detection of viral infection.

HIV strain K103N + Y181C = experiment: microbe, parasite or virus in culture; format: cell-based, HIV-1; conditions: for K103N + Y181C pEC50 (−log EC50): HIV strain K103N + Y181C, MT4 LTR-EGFP cells, three days after infection; for EC50: Human immunodeficiency virus 1, 72 h, read-out: K103N + Y181C pEC50 (−log EC50) (converted)
Excerpt: as §1

HIV strain L100I + K103N = experiment: microbe, parasite or virus in culture; format: cell-based, HIV-1; conditions: for L100I + K103N pEC50 (−log EC50): HIV strain L100I + K103N, MT4 LTR-EGFP cells, three days after infection; for EC50: Human immunodeficiency virus 1, 72 h, read-out: L100I + K103N pEC50 (−log EC50) (converted)
Excerpt: as §1

[1] = target: HIV strain MDR (L100I, K103N, Y181C, E138G, V179I, L2214F, V278V/I and A327A/V in HIV reverse transcriptase); experiment: microbe, parasite or virus in culture; format: cell-based, HIV-1; conditions: for MDR pEC50 (−log EC50): MDR HIV strain (multiple RT mutations), MT4 LTR-EGFP cells, three days after infection; for EC50: Human immunodeficiency virus 1, 72 h, read-out: MDR pEC50 (−log EC50) (converted)
Excerpt: as §1
“MDR” refers to a strain that contains mutations L100I, K103N, Y181C, E138G, V179I, L2214F, V278V/I and A327A/V in HIV reverse transcriptase.

[2] = tested on: HIV strain IIIB (wild type); experiment: microbe, parasite or virus in culture; conditions: for IIIB pEC50 (−log EC50): wild type HIV strain IIIB, MT4 LTR-EGFP cells, GFP fluorescence, three days after infection; for EC50: Human immunodeficiency virus 1, IIIB, 72 h, read-out: IIIB pEC50 (−log EC50) (converted)
Description: Compounds of the invention were tested for their potency against wild type virus and clinically isolated HIV strains harboring one or more mutations associated with resistance to reverse transcriptase inhibitors. Antiviral activity was evaluated using a cellular assay performed according to the following procedure.
The human T-cell line MT4 was engineered with Green Fluorescent Protein (GFP) and a HIV-specific promoter, HIV-1 long terminal repeat (LTR). This cell line, designated MT4 LTR-EGFP, can be used for the in vitro evaluation of anti-HIV activity of investigational compounds. In HIV-1 infected cells, the Tat protein is produced, which upregulates the LTR promotor and eventually leads to stimulation of the GFP reporter production, allowing to measure ongoing HIV-infection fluorometrically.
Analogously, MT4 cells were engineered with GFP and the constitutional cytomegalovirus (CMV) promotor. […] Cytotoxic investigational compounds reduce GFP levels of mock-infected MT4 CMV-EGFP cells.
The ratio of CC50 to EC50 is defined as the selectivity index (SI) and is an indication of the selectivity of the anti-HIV activity of the inhibitor. The ultimate monitoring of HIV-1 infection and cytotoxicity was done using a scanning microscope. Image analysis allows very sensitive detection of viral infection. Measurements were done before cell necrosis, which usually takes place about five days after infection, in particular measurements were performed three days after infection.
The columns IIIB, L100I, etc. in the table list the pEC50 (−log EC50) values against various strains IIIB, L100I, etc.; pSI lists the −log SI values.
Strain IIIB is wild type HIV strain.

Compound	Y181C pEC50 (−log EC50) (HIV strain Y181C)	K103N + Y181C pEC50 (−log EC50) (HIV strain K103N + Y181C)	L100I + K103N pEC50 (−log EC50) (HIV strain L100I + K103N)	MDR pEC50 (−log EC50) [1]	IIIB pEC50 (−log EC50) [2]	EC50 (HIV strain Y181C)	EC50 (HIV strain K103N + Y181C)	EC50 (HIV strain L100I + K103N)	EC50 [1]	EC50 [2]	melting point
Cc1cc(C=CC#N)cc(C)c1Nc1cc(CNCC2CCCO2)nc(Nc2ccc(C#N)cc2)n1 (mixture of isomers) [Compound 28]	7.81	7.82	7.27	5.68	8.68	–	–	–	–	–	–
Cc1cc(C=CC#N)cc(C)c1Nc1cc(CNCCCN2CCOCC2)nc(Nc2ccc(C#N)cc2)n1 (mixture of isomers) [Compound 29]	7.06	7.01	6.66	5.67	7.70	–	–	–	–	–	–
Cc1cc(C=CC#N)cc(C)c1Nc1cc(CNCc2ccncc2)nc(Nc2ccc(C#N)cc2)n1 (mixture of isomers) [Compound 30]	7.69	7.89	7.56	5.80	8.55	–	–	–	–	–	–
Cc1cc(C=CC#N)cc(C)c1Nc1cc(CNCc2cccs2)nc(Nc2ccc(C#N)cc2)n1 (mixture of isomers) [Compound 31]	7.48	7.71	7.13	5.48	8.41	–	–	–	–	–	–
C=CCOCc1cc(Nc2c(C)cc(/C=C/C#N)cc2C)nc(Nc2ccc(C#N)cc2)n1 [Compound 2]	7.74	7.15	7.12	4.95	8.44	–	–	–	–	–	–
COc1ccccc1C(O)c1cc(Nc2c(C)cc(/C=C/C#N)cc2C)nc(Nc2ccc(C#N)cc2)n1 (stereo not shown) [Compound 3]	–	–	–	–	–	0.105 µM	0.263 µM	0.0955 µM	2.95 µM	0.00724 µM	–
COCCNC(=O)c1cc(Nc2c(C)cc(/C=C/C#N)cc2C)nc(Nc2ccc(C#N)cc2)n1 [Compound 4]	–	–	–	–	–	0.0138 µM	0.0102 µM	–	2.82 µM	0.00309 µM	130 °C
Cc1cc(/C=C/C#N)cc(C)c1Nc1cc(C(=O)c2nccs2)nc(Nc2ccc(C#N)cc2)n1 [Compound 10]	–	–	–	–	–	0.00347 µM	0.0107 µM	0.00479 µM	0.562 µM	0.00282 µM	–
Cc1cc(/C=C/C#N)cc(C)c1Nc1cc(CN2CCN(C)CC2)nc(Nc2ccc(C#N)cc2)n1 [Compound 13]	7.79	7.68	7.20	5.59	8.54	–	–	–	–	–	–
Cc1cc(C=CC#N)cc(C)c1Nc1cc(CN(C)CC#N)nc(Nc2ccc(C#N)cc2)n1 [Compound 21]	7.73	7.71	7.16	5.70	8.47	–	–	–	–	–	–
Cc1cc(/C=C/C#N)cc(C)c1Nc1cc(CNCc2cccnc2)nc(Nc2ccc(C#N)cc2)n1 [Compound 27]	–	–	–	–	–	0.0162 µM	0.00309 µM	–	1.17 µM	0.0038 µM	–
CCOP(=O)(OCC)OCc1cc(Nc2c(C)cc(/C=C/C#N)cc2C)nc(Nc2ccc(C#N)cc2)n1 [Compound 32]	7.60	7.50	7.20	6.40	8.50	–	–	–	–	–	–
Cc1cc(/C=C/C#N)cc(C)c1Nc1cc(COC(N)=O)nc(Nc2ccc(C#N)cc2)n1 [Compound 33]	7.70	8.00	7.10	6.20	8.40	–	–	–	–	–	–
